Assay results taken from patent publication US9737525B2, “Small molecule activators of NRF2 pathway” (The General Hospital Corporation, priority 2013, dated 2017).

Assays:
[1] = test system: primary human monocytes; assay: LDH cell death assay in primary human monocytes; assay type: cell-based; conditions: any concentration
Description: Blood samples were obtained from control subjects and genetically-diagnosed, symptomatic HD patients. Patients were classed as having early or moderate-stage disease using the total functional capacity (TFC) scale (13-7, early; 6-3, moderate) [Marder, 2000]. Subjects with inflammatory or infective conditions were excluded. Cells were isolated from whole blood, as previously described [Björkqvist, 2008]. In brief, 50 ml whole blood was collected in heparin (CP Pharmaceuticals) and leukocytes were isolated by density gradient centrifugation. Monocytes were sorted via magnetic cell separation columns using anti-CD14 microbeads (Miltenyi Biotec). Monocytes were seeded at 1×10^5 cells per well in 96-well PRIMARIA™ tissue culture plates (BD Falcon) with R10 media (RPMI culture medium supplemented with 10% FCS, 2 mM L-glutamine, 50 U/ml penicillin and […] streptomycin (Invitrogen)). […] Supernatants were analyzed using the human pro-inflammatory II (4-plex) MSD assay measuring IL-1b, IL-6, IL-8 and TNFα. […] Cell death was measured using a LDH assay (CytoTox-Fluor™ Cytotoxicity Assay from Promega). Normalized cytokine levels have been analyzed on the logarithmic scale due to their skewed distribution. […] Contrasts of interest were then calculated using linear combinations of parameter estimates.

[2] = test system: α-tubulin K40 and histone H3 acetylation; assay: Acetylation of SIRT2 substrates in wild type primary cortical neurons; assay type: cell-based, mouse
Description: To assess protein levels, cell extracts were prepared from cells washed with PBS and lysed with buffer containing 2% SDS, Complete EDTA-free Protease Inhibitor Cocktail (Roche) and 1 mM phenylmethylsulfonyl fluoride. To prepare brain extracts for analysis, frozen mouse cortical tissues were homogenized in PBS containing protease inhibitors with an Kontes Pellet Pestle (Kimble/Kontes). They were later sonicated and lysed overnight at 4° C. in 2× volume of lysis buffer containing 2% SDS and protease inhibitors. Protein concentrations in ST14A cell extracts and homogenized cortical tissues were evaluated using a BCA analysis kit and normalized. Samples were prepared in a SDS buffer containing DTT and separated on bis-acrylamide protein gels via electrophoresis and transferred onto a 0.2 μm PVDF membrane). Membranes were probed for NQO1 (Sigma N5288, 1:1,000), GCLM, (Abcam ab126704, 1:800), SIRT2 (Sigma S8447, 1:2,500), histone H3 (Cell Signaling 4499, 1:2,000), acetylated H3 (K56) (Millipore 04-1135, 1:500), TNFα (Abcam ab1793, 1:1,500), GADPH (Millipore MAB374, 1:10,000), actin (Sigma A2066, 1:1250), α-tubulin (Sigma T6074, 1:20,000), and acetylated α-tubulin (Sigma T6793, 1:2,500) overnight in 5% milk in PBST at 4° C. on a rocker. Membranes were thrice washed in PBST for 15 min on a shaker and incubated in either an anti-rabbit-HRP (Bio-Rad 170-5046, 1:10,000) or anti-mouse-HRP (Sigma A3682, 1:4,000) secondary solution as appropriate in 3% milk in PBST for 1 hr at room temperature on a rocker. After four washes of 15 min in PBST on a shaker, blots were visualized using SuperSignal West Pico Chemiluminescent Substrate (Pierce 34080) or SuperSignal West Dura Extended Duration Substrate (Thermo 34075) and exposed on Scientific Imaging Film (Kodak 864 6770).
Based upon the robust neuroprotection observed in HD model systems expressing both mutant HTT fragments and full-length mutant HTT, verification of the bioactivity of MIND4 as SIRT2 inhibitor in primary neurons was sought. […]

[3] = test system: mutant HTT exon 1 fragment; assay: Mutant HTT exon 1 levels in R6/2 mice (HTRF); assay type: in vivo, mouse; conditions: 50 mg/kG daily for 3 weeks
Description: In effects of brain-permeable MIND4 on clearance misfloded mutant HTT fragments have been tested in HD mouse model R6/2, expressing mutant HTT exon 1 fragment. Symptomatic HD mice (5 week old) have been treated with MIND4 at 50 mg/kG daily dose for 3 weeks. Treatment effects on levels of mutant exon 1 HTT have been measured by a highly sensitive HTRF method (FIG. 17C) as described (Mosckovitch-Lopatin, 2010; Chopra, 2012).

[4] = test system: TNFα; assay: TNFα protein in brain of HD mouse model R6/2; assay type: in vivo; conditions: R6/2 mice, daily i.p. 50 mg/kg, 4 weeks
Description: To assess protein levels, cell extracts were prepared from cells washed with PBS and lysed with buffer containing 2% SDS, Complete EDTA-free Protease Inhibitor Cocktail (Roche) and 1 mM phenylmethylsulfonyl fluoride. To prepare brain extracts for analysis, frozen mouse cortical tissues were homogenized in PBS containing protease inhibitors with an Kontes Pellet Pestle (Kimble/Kontes). They were later sonicated and lysed overnight at 4° C. in 2× volume of lysis buffer containing 2% SDS and protease inhibitors. Protein concentrations in ST14A cell extracts and homogenized cortical tissues were evaluated using a BCA analysis kit and normalized. Samples were prepared in a SDS buffer containing DTT and separated on bis-acrylamide protein gels via electrophoresis and transferred onto a 0.2 μm PVDF membrane). […]
For this animal trial, the well-characterized transgenic R6/2 mouse model of HD was selected, in which severe neurological phenotypes and premature death at age of 12-13 week is conferred by expression of a human HTT exon 1 fragment containing a pathological ˜150Q repeat tract (Mangiarini et al., 1996). […] Body weights were recorded weekly at the same time of day. At 10 weeks of age, mice were sacrificed 2 hrs after the last injection; brains were removed and snap frozen in liquid nitrogen and kept frozen at −80° C. until analyzed. […]

Row | SMILES | Toxic effect on viability of primary human monocytes [1] | Acetylation of histone 3 K56 and K27 ([2]; primary neurons, 6 hr) | Acetylation of α-tubulin and Histone 3 K56 ([2]; wild type primary cortical neurons (DIV11), 6 hours) | Mutant HTT exon 1 fragments in cortex [3] | TNFα protein levels in cortical extracts [4]
1 | O=[N+]([O-])c1ccc(Sc2nnc(COc3ccccc3)n2-c2ccccc2)nc1 [MIND4-17] | Neither vehicle (DMSO) or MIND4-17 had a toxic effect | – | – | – | –
2 | O=[N+]([O-])c1ccc(Sc2nnc(COc3ccccc3)n2-c2ccccc2)c2ncccc12 [MIND4, 5-nitro-8-{[5-(phenoxymethyl)-4-phenyl-4H-1,2,4-triazol-3-yl]thio}quinoline] | – | increased acetylation of histone 3 K56 and K27 | only subtle increases of acetylation | Significant reduction of mutant HTT exon I fragments | striking reduction of TNFα
